From the supplement of paper PMC10627819

Assays:
[1] = tested on: B. subtilis 168; experiment: fitness (endpoint OD595 vs no drug) (fraction); higher = more growth
In short: (§1)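 Each well of a 384-well plate received 30 µl of culture at OD595 0.01, or 55 µl for S. pneumoniae. TSB, LB Lennox or CY served as media at 37 °C. OD595 was taken every 30 min for 14 h and corrected by subtracting the first reading. Fitness is the optical density at stationary-phase entry divided by the robust mean of no-drug controls, capped at 1.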

[2] = tested on: S. aureus DSM 20231; experiment: as above
In short: as §1

[3] = tested on: S. pneumoniae D39V; experiment: as above
In short: as §1

[4] = tested on: B. subtilis 168; experiment: Bliss interaction score (quartile over a dose matrix) (fitness difference); higher = more antagonism (negative = synergy)
In short: (§2)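 Fitness is OD595 at stationary-phase entry relative to the plate's robust no-drug mean, capped at 1. Single-drug fitness was inferred from combinations. The Bliss score is observed minus product-expected fitness, summarised by quartiles over technical, biological and donor/recipient replicates.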

[5] = tested on: S. aureus DSM 20231; experiment: as above
In short: as §2

[6] = tested on: S. aureus Newman; experiment: as above
In short: as §2

[7] = tested on: S. pneumoniae D39V; experiment: as above
In short: as §2
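Throughout, for Bliss interaction score (quartile over a dose matrix): first quartile when negative (synergy) and third quartile when positive (antagonism).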

CC(=O)NC[C@H]1CN(c2ccc(N3CCOCC3)c(F)c2)C(=O)O1 [Linezolid] + CC1=C\[C@@H](O)CC(=O)Cc2nc(co2)C(=O)N2CCC=C2C(=O)O[C@H](C(C)C)[C@H](C)/C=C/C(=O)NC\C=C\1 [Virginiamycin M1]
one replicate
Settings | fitness
[1], first compound 0.0625 µg/mL, partner 0.0625 µg/mL | 0.851
[1], first compound 0.0625 µg/mL, partner 0.125 µg/mL | 0.915
[1], first compound 0.0625 µg/mL, partner 0.25 µg/mL | 0.879
[2], first compound 0.125 µg/mL, partner 0.5 µg/mL | 0.873
[2], first compound 0.125 µg/mL, partner 1 µg/mL | 0.759
[2], first compound 0.25 µg/mL, partner 0.5 µg/mL | 0.675
[2], first compound 0.25 µg/mL, partner 1 µg/mL | 0.63
[2], first compound 0.5 µg/mL, partner 0.5 µg/mL | 0.262
[2], first compound 0.5 µg/mL, partner 1 µg/mL | 0.296
[2], first compound 1 µg/mL, partner 0.0625 µg/mL | 0.0385
[2], first compound 1 µg/mL, partner 0.125 µg/mL | 0.0443
[2], first compound 1 µg/mL, partner 0.25 µg/mL | 0.0419
[3], first compound 0.2 µg/mL, partner 0.15 µg/mL | 0.829
[3], first compound 0.2 µg/mL, partner 0.3 µg/mL | 0.825
[3], first compound 0.2 µg/mL, partner 0.5 µg/mL | 0.861
[3], first compound 0.2 µg/mL, partner 1 µg/mL | 0.81
[3], first compound 0.4 µg/mL, partner 0.15 µg/mL | 0.738
[3], first compound 0.4 µg/mL, partner 0.3 µg/mL | 0.721
[3], first compound 0.4 µg/mL, partner 0.5 µg/mL | 0.785
[3], first compound 0.4 µg/mL, partner 1 µg/mL | 0.67
[3], first compound 0.8 µg/mL, partner 0.15 µg/mL | 0.546
[3], first compound 0.8 µg/mL, partner 0.3 µg/mL | 0.577
[3], first compound 0.8 µg/mL, partner 0.5 µg/mL | 0.562
[3], first compound 0.8 µg/mL, partner 1 µg/mL | 0.376

Settings | fitness
[1], first compound 0.125 µg/mL, partner 0.0625 µg/mL | 0.57
[1], first compound 0.125 µg/mL, partner 0.125 µg/mL | 0.572
[1], first compound 0.125 µg/mL, partner 0.25 µg/mL | 0.578
[1], first compound 0.25 µg/mL, partner 0.0625 µg/mL | 0.0596
[1], first compound 0.25 µg/mL, partner 0.125 µg/mL | 0.0652
[1], first compound 0.25 µg/mL, partner 0.25 µg/mL | 0.0843
[1], first compound 0.5 µg/mL, partner 0.0625 µg/mL | 0.0436
[1], first compound 0.5 µg/mL, partner 0.125 µg/mL | 0.0429
[1], first compound 0.5 µg/mL, partner 0.25 µg/mL | 0.0502
[2], first compound 0.125 µg/mL, partner 0.0625 µg/mL | 0.884
[2], first compound 0.125 µg/mL, partner 0.125 µg/mL | 0.951
[2], first compound 0.125 µg/mL, partner 0.25 µg/mL | 0.826
[2], first compound 0.25 µg/mL, partner 0.0625 µg/mL | 0.589
[2], first compound 0.25 µg/mL, partner 0.125 µg/mL | 0.614
[2], first compound 0.25 µg/mL, partner 0.25 µg/mL | 0.638
[2], first compound 0.5 µg/mL, partner 0.0625 µg/mL | 0.186
[2], first compound 0.5 µg/mL, partner 0.125 µg/mL | 0.156
[2], first compound 0.5 µg/mL, partner 0.25 µg/mL | 0.196
[3], first compound 0.105 µg/mL, partner 0.5 µg/mL | 0.849
[3], first compound 0.105 µg/mL, partner 1 µg/mL | 0.881
[3], first compound 0.105 µg/mL, partner 2 µg/mL | 0.856
[3], first compound 0.2 µg/mL, partner 2 µg/mL | 0.775
[3], first compound 0.21 µg/mL, partner 0.5 µg/mL | 0.763
[3], first compound 0.21 µg/mL, partner 1 µg/mL | 0.756
[3], first compound 0.21 µg/mL, partner 2 µg/mL | 0.769
[3], first compound 0.4 µg/mL, partner 2 µg/mL | 0.677
[3], first compound 0.42 µg/mL, partner 0.5 µg/mL | 0.496
[3], first compound 0.42 µg/mL, partner 1 µg/mL | 0.486
[3], first compound 0.42 µg/mL, partner 2 µg/mL | 0.39
[3], first compound 0.8 µg/mL, partner 2 µg/mL | 0.458

Settings | Bliss interaction score
[4] | 0.0733
[5] | 0.0505
[6] | 0.0286
[7] | -0.0638

CC(=O)NC[C@H]1CN(c2ccc(N3CCOCC3)c(F)c2)C(=O)O1 [Linezolid] + CCCCCCCCCC(=O)N[C@@H]1[C@H]([C@@H]([C@H](O[C@H]1OC2=C3C=C4C=C2OC5=C(C=C(C=C5)[C@H]([C@H]6C(=O)N[C@@H](C7=C(C(=CC(=C7)O)OC8[C@H]([C@H]([C@@H]([C@H](O8)CO)O)O)O)C9=C(C=CC(=C9)[C@H](C(=O)N6)NC(=O)[C@@H]4NC(=O)[C@@H]1C2=CC(=CC(=C2)OC2=C(C=CC(=C2)[C@H](C(=O)N[C@H](CC2=CC(=C(O3)C=C2)Cl)C(=O)N1)N)O)O)O)C(=O)O)O[C@H]1[C@@H]([C@H]([C@@H]([C@H](O1)CO)O)O)NC(=O)C)Cl)CO)O)O [Teicoplanin]
fitness, [2], main component drawn
Settings | first compound 0.125 µg/mL | first compound 0.25 µg/mL | first compound 0.5 µg/mL
partner 0.1562 µg/mL | 0.852 | 0.649 | 0.158
partner 0.3125 µg/mL | 0.989 | – | –
partner 0.625 µg/mL | ≥ 1 | – | –

[2], first compound 1 µg/mL, one replicate, main component drawn
Settings | fitness
partner 0.1562 µg/mL | 0.0359
partner 0.3125 µg/mL | 0.0319
partner 0.625 µg/mL | 0.0292

main component drawn
Settings | Bliss interaction score
[4] | -0.0585
[5] | 0.109
[6] | 0.116
[7] | -0.0593

CC(=O)NC[C@H]1CN(c2ccc(N3CCOCC3)c(F)c2)C(=O)O1 [Linezolid] + CCN(CC)CCOC(=O)c1ccc(N)cc1 [Procaine]
fitness, one replicate
Settings | partner 85.5 µg/mL | partner 171 µg/mL | partner 342 µg/mL
[1], first compound 0.0625 µg/mL | 0.828 | 0.846 | 0.858
[2], first compound 1 µg/mL | 0.0561 | 0.0334 | 0.05
[3], first compound 0.2 µg/mL | 0.792 | 0.839 | 0.778
[3], first compound 0.4 µg/mL | 0.609 | 0.669 | 0.621
[3], first compound 0.8 µg/mL | 0.245 | 0.335 | 0.271

fitness
Settings | first compound 0.105 µg/mL | first compound 0.125 µg/mL | first compound 0.21 µg/mL | first compound 0.25 µg/mL | first compound 0.42 µg/mL | first compound 0.5 µg/mL
[1], partner 85.5 µg/mL | – | 0.587 | – | 0.101 | – | 0.022
[1], partner 171 µg/mL | – | 0.613 | – | 0.0992 | – | 0.0423
[1], partner 342 µg/mL | – | 0.569 | – | 0.0813 | – | 0.0154
[2], partner 85.5 µg/mL | – | 0.839 | – | 0.574 | – | 0.15
[2], partner 171 µg/mL | – | 0.832 | – | 0.643 | – | 0.193
[2], partner 342 µg/mL | – | 0.768 | – | 0.582 | – | 0.143
[3], partner 85.5 µg/mL | 0.824 | – | 0.728 | – | 0.579 | –
[3], partner 171 µg/mL | 0.816 | – | 0.719 | – | 0.569 | –
[3], partner 342 µg/mL | 0.801 | – | 0.699 | – | 0.535 | –

Settings | Bliss interaction score
[4] | 0.0668
[5] | -0.0676
[6] | 0.111
[7] | 0.0684

CC(=O)NC[C@H]1CN(c2ccc(N3CCOCC3)c(F)c2)C(=O)O1 [Linezolid] + CN1C2=CC=CC=C2N=C3C1=CC=CC3=O [Pyocyanin]
one replicate
Settings | fitness
[1], first compound 0.0625 µg/mL, partner 1.25 µg/mL | 0.804
[1], first compound 0.0625 µg/mL, partner 2.5 µg/mL | 0.749
[1], first compound 0.0625 µg/mL, partner 5 µg/mL | 0.594
[2], first compound 1 µg/mL, partner 1.25 µg/mL | 0.0458
[2], first compound 1 µg/mL, partner 2.5 µg/mL | 0.0282
[2], first compound 1 µg/mL, partner 5 µg/mL | 0.0258
[3], first compound 0.2 µg/mL, partner 0.325 µg/mL | 0.892
[3], first compound 0.2 µg/mL, partner 0.65 µg/mL | 0.824
[3], first compound 0.4 µg/mL, partner 0.325 µg/mL | 0.745
[3], first compound 0.4 µg/mL, partner 0.65 µg/mL | 0.745
[3], first compound 0.8 µg/mL, partner 0.325 µg/mL | 0.483
[3], first compound 0.8 µg/mL, partner 0.65 µg/mL | 0.603

Settings | fitness
[1], first compound 0.125 µg/mL, partner 1.25 µg/mL | 0.563
[1], first compound 0.125 µg/mL, partner 2.5 µg/mL | 0.544
[1], first compound 0.125 µg/mL, partner 5 µg/mL | 0.466
[1], first compound 0.25 µg/mL, partner 2.5 µg/mL | 0.093
[1], first compound 0.25 µg/mL, partner 5 µg/mL | 0.131
[1], first compound 0.5 µg/mL, partner 1.25 µg/mL | 0.027
[1], first compound 0.5 µg/mL, partner 2.5 µg/mL | 0.0397
[1], first compound 0.5 µg/mL, partner 5 µg/mL | 0.0383
[2], first compound 0.125 µg/mL, partner 1.25 µg/mL | 0.768
[2], first compound 0.125 µg/mL, partner 2.5 µg/mL | 0.829
[2], first compound 0.125 µg/mL, partner 5 µg/mL | 0.546
[2], first compound 0.25 µg/mL, partner 1.25 µg/mL | 0.559
[2], first compound 0.5 µg/mL, partner 1.25 µg/mL | 0.208
[2], first compound 0.5 µg/mL, partner 2.5 µg/mL | 0.143
[2], first compound 0.5 µg/mL, partner 5 µg/mL | 0.0745
[3], first compound 0.105 µg/mL, partner 0.325 µg/mL | 0.858
[3], first compound 0.105 µg/mL, partner 0.65 µg/mL | 0.882
[3], first compound 0.105 µg/mL, partner 1.3 µg/mL | 0.632
[3], first compound 0.21 µg/mL, partner 0.325 µg/mL | 0.773
[3], first compound 0.21 µg/mL, partner 0.65 µg/mL | 0.775
[3], first compound 0.21 µg/mL, partner 1.3 µg/mL | 0.608
[3], first compound 0.42 µg/mL, partner 0.325 µg/mL | 0.605
[3], first compound 0.42 µg/mL, partner 0.65 µg/mL | 0.589
[3], first compound 0.42 µg/mL, partner 1.3 µg/mL | 0.389

Settings | Bliss interaction score
[4] | 0.109
[5] | 0.047
[6] | -0.0368
[7] | 0.118
